From patent US10745356B2, “Compositions and methods for treating tuberculosis” (priority 2015, dated 2020)
≈ marks a conversion by molar mass, not a printed value.

The compounds below were run on M. tuberculosis strains (assay: Minimum Inhibitory Concentration (MIC) against M. tuberculosis strains, resazurin microtiter plate assay). Conditions: Mycobacterium tuberculosis.
Assay type: cell-based, Mycobacterium tuberculosis

Structure (SMILES)	MIC90
CNC(=O)c1cc(N2CCCCC2)c2c(C)c(-c3ccncc3)c(C)cc2n1 [Compound 69]	5 µM (≈ 1.87 µg/mL)
Cc1cccc(C)c1-c1ccnc2cc(C)c(-c3ccc(CN4CCOCC4)cc3)c(C)c12 [Compound 58]	5 µM (≈ 2.18 µg/mL)
Cc1cc2nccc(-c3cccnc3C#N)c2c(C)c1-c1ccc(CN2CCOCC2)cc1 [Compound 62]	7.5 µM (≈ 3.26 µg/mL)
CNC(=O)c1cc(-c2ccccc2F)c2c(C)c(-c3ccoc3)c(C)cc2n1 [Compound 80]	0.6 µM (≈ 0.225 µg/mL)
COc1cccc(-c2ccnc3cc(C)c(-c4ccc(CN5CCOCC5)cc4)c(C)c23)c1OC [Compound 51]	> 40 µM
Cc1cc2nccc(-c3ccnn3C)c2c(C)c1-c1ccc(CN2CCOCC2)cc1 [Compound 63]	2.2 µM (≈ 0.908 µg/mL)
CNC(=O)c1cc(-c2ccccc2F)c2c(C)c(C3=CCNCC3)c(C)cc2n1 [Compound 86]	20 µM (≈ 7.79 µg/mL)

Same assay, conditions: Mycobacterium tuberculosis, Table 1, C2 SAR with chlorophenyl; Middlebrook 7H9, 37° C. six days, resazurin fluorescence after 48 hours; read-out: MIC90

Structure (SMILES)	MIC90
Cc1cc2nc(NCCO)cc(-c3ccccc3Cl)c2c(C)c1-c1ccncc1 [Compound 9]	3 µM (≈ 1.21 µg/mL)
Cc1cc2nc(C(=O)NC3CCN(C)C3)cc(-c3ccccc3Cl)c2c(C)c1-c1ccncc1 (stereo not drawn) [Compound 25]	1.25 µM (≈ 0.589 µg/mL)
Cc1cc2nc(C(=O)NCC(O)CO)cc(-c3ccccc3Cl)c2c(C)c1-c1ccncc1 (stereo not drawn) [Compound 22]	0.4 µM (≈ 0.185 µg/mL)
Cc1cc2nc(C(N)=O)cc(-c3ccccc3Cl)c2c(C)c1-c1ccncc1 [Compound 12]	1.25 µM (≈ 0.485 µg/mL)
Cc1cc2nc(C(=O)NS(=O)(=O)C3CC3)cc(-c3ccccc3Cl)c2c(C)c1-c1ccncc1 [Compound 20]	2.5 µM (≈ 1.23 µg/mL)
CNC(=O)c1cc(-c2ccccc2Cl)c2c(C)c(-c3ccncc3)c(C)cc2n1 [Compound 13]	0.8 µM (≈ 0.322 µg/mL)
Cc1cc2nc(C(=O)NCC(C)(C)C(=O)O)cc(-c3ccccc3Cl)c2c(C)c1-c1ccncc1 [Compound 28]	80 µM (≈ 39 µg/mL)
CNS(=O)(=O)c1cc(-c2ccccc2Cl)c2c(C)c(-c3ccncc3)c(C)cc2n1 [Compound 11]	10 µM (≈ 4.38 µg/mL)
Cc1cc2nc(C(=O)N[C@H]3CCC[C@@H]3O)cc(-c3ccccc3Cl)c2c(C)c1-c1ccncc1 [Compound 24]	0.6 µM (≈ 0.283 µg/mL)

Same assay, conditions: Mycobacterium tuberculosis, Table 1A, C2 SAR with fluorophenyl; Middlebrook 7H9, 37° C. six days, resazurin fluorescence after 48 hours; read-out: MIC90

Structure (SMILES)	MIC90
Cc1cc2nc(C(=O)N[C@@H](C)CCO)cc(-c3ccccc3F)c2c(C)c1-c1ccncc1 [Compound 42]	0.16 µM (≈ 0.071 µg/mL)
Cc1cc2nc(C(=O)N[C@H](C)CCO)cc(-c3ccccc3F)c2c(C)c1-c1ccncc1 [Compound 41]	0.16 µM (≈ 0.071 µg/mL)
Cc1cc2nc(C(=O)NC[C@H](O)CO)cc(-c3ccccc3F)c2c(C)c1-c1ccncc1 [Compound 43]	0.8 µM (≈ 0.356 µg/mL)
Cc1cc2nc(C(=O)N[C@H](C)CO)cc(-c3ccccc3F)c2c(C)c1-c1ccncc1 [Compound 39]	0.6 µM (≈ 0.258 µg/mL)

Same assay, conditions: Mycobacterium tuberculosis, Table 2, C4 SAR; Middlebrook 7H9, 37° C. six days, resazurin fluorescence after 48 hours; read-out: MIC90

Structure (SMILES)	MIC90
Cc1cc2nccc(-c3ccccc3CO)c2c(C)c1-c1ccc(CN2CCOCC2)cc1 [Compound 55]	2.5 µM (≈ 1.1 µg/mL)
Cc1cc2nccc(-c3ccccc3C#N)c2c(C)c1-c1ccc(CN2CCOCC2)cc1 [Compound 52]	2.5 µM (≈ 1.08 µg/mL)

Same assay, conditions: Mycobacterium tuberculosis, Table 3, C4 SAR; Middlebrook 7H9, 37° C. six days, resazurin fluorescence after 48 hours; read-out: MIC90

Structure (SMILES)	MIC90
CNC(=O)c1cc(-c2cncnc2)c2c(C)c(-c3ccncc3)c(C)cc2n1 [Compound 68]	10 µM (≈ 3.69 µg/mL)
CNC(=O)c1cc(N2CCOCC2)c2c(C)c(-c3ccncc3)c(C)cc2n1 [Compound 70]	20 µM (≈ 7.53 µg/mL)
CNC(=O)c1cc(-c2ccccc2Cl)c2c(C)c(-c3ccncc3)c(C)cc2n1 [Compound 13]	0.8 µM (≈ 0.322 µg/mL)

Same assay, conditions: Mycobacterium tuberculosis, Table 4A, C6 SAR with amide; Middlebrook 7H9, 37° C. six days, resazurin fluorescence after 48 hours; read-out: MIC90

Structure (SMILES)	MIC90
CNC(=O)c1cc(-c2ccccc2F)c2c(C)c(-c3ccnc(C(F)(F)F)c3)c(C)cc2n1 [Compound 79]	5 µM (≈ 2.27 µg/mL)
CNC(=O)c1cc(-c2ccccc2F)c2c(C)c(-c3ccc(CN4CCOCC4)cc3)c(C)cc2n1 [Compound 78]	0.6 µM (≈ 0.29 µg/mL)
CNC(=O)c1cc(-c2ccccc2F)c2c(C)c(-c3cccs3)c(C)cc2n1 [Compound 81]	3 µM (≈ 1.17 µg/mL)
CNC(=O)c1cc(-c2ccccc2F)c2c(C)c(C3=CCC(C(=O)O)CC3)c(C)cc2n1 (stereo not drawn) [Compound 87]	2.5 µM (≈ 1.08 µg/mL)

Same assay, conditions: Mycobacterium tuberculosis, Table 5; Middlebrook 7H9, 37° C. six days, resazurin fluorescence after 48 hours; read-out: MIC90

Structure (SMILES)	MIC90
Cc1cc2nc(C(=O)N[C@H]3CCC[C@@H]3O)cc(-c3ccccc3F)c2c(C)c1-c1ccncc1 [Compound 97]	< 0.16 µM
Cc1cc2nccc(-c3cccnc3)c2c(C)c1-c1ccc(CN2CCOCC2)cc1 [Compound 93]	1.6 µM (≈ 0.655 µg/mL)
CNC(=O)c1cc(-c2ccccc2)c2c(C)c(-c3ccncc3)c(C)cc2n1 [Compound 95]	0.3 µM (≈ 0.11 µg/mL)

Same assay, conditions: Mycobacterium tuberculosis, Table 6; Middlebrook 7H9, 37° C. six days, resazurin fluorescence after 48 hours; read-out: MIC90

Structure (SMILES)	MIC90
Cc1cc2nc(C(=O)N[C@@H]3CN(C)C[C@@H]3F)cc(-c3ccnn3C)c2c(C)c1-c1ccncc1 [Compound 106]	1.6 µM (≈ 0.734 µg/mL)
